What follows are compounds tested against Human Full Length PARG (Homo sapiens (Human), UniProt Q86W56) (assay: PARG enzyme assay (TR-FRET)). Conditions: read-out: PARG Biochem IC50 Geomean.
Format: biochemical

Sequence of Human Full Length PARG (Q86W56 whole entry): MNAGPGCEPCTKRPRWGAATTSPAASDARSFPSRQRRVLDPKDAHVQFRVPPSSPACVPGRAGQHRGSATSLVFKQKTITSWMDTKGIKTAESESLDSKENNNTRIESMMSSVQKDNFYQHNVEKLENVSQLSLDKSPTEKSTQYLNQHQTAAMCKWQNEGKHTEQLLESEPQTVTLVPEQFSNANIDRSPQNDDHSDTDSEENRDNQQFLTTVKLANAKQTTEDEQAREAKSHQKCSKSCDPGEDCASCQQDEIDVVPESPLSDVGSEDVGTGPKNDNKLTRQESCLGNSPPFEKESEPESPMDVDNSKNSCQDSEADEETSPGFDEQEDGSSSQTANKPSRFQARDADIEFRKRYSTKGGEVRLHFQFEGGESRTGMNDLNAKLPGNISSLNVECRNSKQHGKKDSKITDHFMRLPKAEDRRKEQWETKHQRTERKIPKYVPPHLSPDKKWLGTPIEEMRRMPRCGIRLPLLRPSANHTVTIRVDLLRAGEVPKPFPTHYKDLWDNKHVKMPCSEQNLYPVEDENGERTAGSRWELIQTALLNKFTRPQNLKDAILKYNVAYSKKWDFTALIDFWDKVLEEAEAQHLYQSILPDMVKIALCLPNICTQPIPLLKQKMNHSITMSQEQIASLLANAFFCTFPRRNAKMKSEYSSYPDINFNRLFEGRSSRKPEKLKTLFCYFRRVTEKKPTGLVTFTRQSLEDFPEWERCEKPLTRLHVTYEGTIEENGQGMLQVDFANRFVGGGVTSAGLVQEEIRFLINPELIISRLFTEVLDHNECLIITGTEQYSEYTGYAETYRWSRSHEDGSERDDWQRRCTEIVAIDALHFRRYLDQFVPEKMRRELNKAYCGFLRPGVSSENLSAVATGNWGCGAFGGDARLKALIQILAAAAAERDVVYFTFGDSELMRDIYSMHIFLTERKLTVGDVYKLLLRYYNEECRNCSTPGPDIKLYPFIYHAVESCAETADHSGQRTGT

IC50 [nM] | Structure (SMILES)
1140 | Cn1c(=O)c2cc(S(=O)(=O)NC3(C)CC3)ccc2n(Cc2cccc(C#N)c2)c1=O [Example 69]
2390 | Cn1c(=O)c2cc(S(=O)(=O)NC3(C)CC3)ccc2n(Cc2ccccc2C(F)(F)F)c1=O [Example 71]
2100 | Cn1c(=O)c2cc(S(=O)(=O)NC3(C)CC3)ccc2n(Cc2c(Cl)cccc2Cl)c1=O [Example 74]
1680 | Cc1cc(C)cc(Cn2c(=O)n(C)c(=O)c3cc(S(=O)(=O)NC4(C)CC4)ccc32)c1 [Example 77]
621 | COc1cc(Cn2c(=O)n(C)c(=O)c3cc(S(=O)(=O)NC4(C)CC4)ccc32)cc(OC)c1 [Example 78]
1840 | CC(C)Cc1nc2ccc(S(=O)(=O)NC3(C)CC3)cc2c(=O)n1C [Example 81]
5770 | Cn1c(=O)c2cc(S(=O)(=O)NC3(C)CC3)ccc2n(Cc2ccccn2)c1=O [Example 82]
1330 | Cn1c(=O)c2cc(S(=O)(=O)NC3(C)CC3)ccc2n(Cc2cccnc2)c1=O [Example 83]
2370 | Cn1c(=O)c2cc(S(=O)(=O)NC3(C)CC3)ccc2n(Cc2ccncc2)c1=O [Example 84]
2250 | Cn1c(=O)n(CC(=O)Nc2ccccc2)c(=O)c2cc(S(=O)(=O)NC3(C)CC3)ccc21 [Example 85]
5470 | Cn1c(=O)n(CC(=O)N2CCC[C@H]2C(N)=O)c(=O)c2cc(S(=O)(=O)NC3(C)CC3)ccc21 [Example 86]
5890 | Cn1c(=O)n(Cc2ccc(C(N)=O)cc2)c(=O)c2cc(S(=O)(=O)NC3(C)CC3)ccc21 [Example 89]
4130 | Cn1c(=O)c2cc(S(=O)(=O)NC3(C)CC3)ccc2n(CC(=O)Nc2ccccc2)c1=O [Example 92]
758 | Cn1c(=O)c2cc(S(=O)(=O)NC3(C)CC3)ccc2n(Cc2noc(C(N)=O)n2)c1=O [Example 95]
2190 | Cn1c(-c2ccccc2)nc2ccc(S(=O)(=O)NC3(C)CC3)cc2c1=O [Example 97]
1280 | Cn1c(=O)c2cc(S(=O)(=O)NC3(C)CC3)ccc2n(Cc2ccc(C#N)c(F)c2)c1=O [Example 100]
5190 | Cc1cc(Cn2c(=O)c3cc(S(=O)(=O)NC4(C)CC4)ccc3n(C)c2=O)no1 [Example 103]
1430 | Cc1cc(Cn2c(=O)n(C)c(=O)c3cc(S(=O)(=O)NC4(C)CC4)ccc32)no1 [Example 105]
3880 | Cn1cc(NC(=O)Cn2c(=O)n(C)c(=O)c3cc(S(=O)(=O)NC4(C)CC4)ccc32)cn1 [Example 106]
8940 | Cn1c(=O)c2cc(S(=O)(=O)NC3(C)CC3)ccc2n(CC(=O)c2ccc(O)cc2)c1=O [Example 107]
7800 | Cn1c(=O)n(Cc2cnccn2)c(=O)c2cc(S(=O)(=O)NC3(C)CC3)ccc21 [Example 108]
6700 | CCN(CC)c1ccc(C(=O)Cn2c(=O)c3cc(S(=O)(=O)NC4(C)CC4)ccc3n(C)c2=O)cc1 [Example 110]
5710 | Cn1c(=O)n(Cc2nc3ccccc3[nH]2)c(=O)c2cc(S(=O)(=O)NC3(C)CC3)ccc21 [Example 112]
7350 | Cn1ccnc1Cn1c(=O)c2cc(S(=O)(=O)NC3(C)CC3)ccc2n(C)c1=O [Example 113]
1510 | Cn1c(=O)n(CC(=O)c2ccc(N3CCCC3)cc2)c(=O)c2cc(S(=O)(=O)NC3(C)CC3)ccc21 [Example 114]
1050 | Cn1c(=O)c2cc(S(=O)(=O)NC3(C)CC3)ccc2n(Cc2nc3ccccc3[nH]2)c1=O [Example 116]
4810 | Cn1c(=O)c2cc(S(=O)(=O)NC3(C)CC3)ccc2n(CC(=O)c2ccc(N3CCCC3)cc2)c1=O [Example 117]

IC50 [nM] | Structure (SMILES)
1420 | Cn1c(=O)c2cc(S(=O)(=O)NC3(C)CC3)ccc2n(Cc2noc(C(C)(C)C)n2)c1=O [Example 119]
2540 | Cc1noc(C)c1Cn1c(=O)n(C)c(=O)c2cc(S(=O)(=O)NC3(C)CC3)ccc21 [Example 121]
2420 | Cc1cc(Cn2c(=O)c3cc(S(=O)(=O)NC4(C)CC4)ccc3n(C)c2=O)n(C)n1 [Example 123]
1230 | Cn1nccc1Cn1c(=O)n(C)c(=O)c2cc(S(=O)(=O)NC3(C)CC3)ccc21 [Example 125]
5100 | CC1(NS(=O)(=O)c2ccc3c(c2)[nH]c(=O)c(=O)n3Cc2ccc(F)cc2)CC1 [Example 128, 1-[(4-Fluorophenyl)methyl]-N-(1-methylcyclopropyl)-2,3-dioxo-4H-quinoxaline-6-sulfonamide]
3360 | Cn1c(=O)c(=O)n(Cc2ccc(F)cc2)c2ccc(S(=O)(=O)NC3(C)CC3)cc21 [Example 130, 1-[(4-Fluorophenyl)methyl]-4-methyl-N-(1-methylcyclopropyl)-2,3-dioxo-quinoxaline-6-sulfonamide]
760 | Cc1nc(-c2ccccc2)c(Cn2c(=O)n(C)c(=O)c3cc(S(=O)(=O)NC4(C)CC4)ccc32)s1 [Example 134]
1110 | CC#CCn1c(=O)n(C)c(=O)c2cc(S(=O)(=O)NC3(C)CC3)ccc21 [Example 136]
907 | Cc1nc(C)c(Cn2c(=O)c3cc(S(=O)(=O)NC4(C)CC4)ccc3n(C)c2=O)s1 [Example 142]
1600 | Cn1c(=O)n(Cc2cnc(Cl)s2)c(=O)c2cc(S(=O)(=O)NC3(C)CC3)ccc21 [Example 144]
671 | Cn1c(=O)c2cc(S(=O)(=O)NC3(C)CC3)ccc2n(Cc2nccs2)c1=O [Example 146]
1210 | Cn1c(=O)n(Cc2cncs2)c(=O)c2cc(S(=O)(=O)NC3(C)CC3)ccc21 [Example 147]
855 | Cn1c(=O)c2cc(S(=O)(=O)NC3(C)CC3)ccc2n(Cc2cscn2)c1=O [Example 148]
4780 | Cc1csc(Cn2c(=O)c3cc(S(=O)(=O)NC4(C)CC4)ccc3n(C)c2=O)n1 [Example 150]
3310 | Cn1cncc1Cn1c(=O)c2cc(S(=O)(=O)NC3(C)CC3)ccc2n(C)c1=O [Example 154]
700 | Cc1cc(COc2nc3ccc(S(=O)(=O)NC4(C)CC4)cc3c(=O)n2Cc2c(C)noc2C)n(C)n1 [Example 167]
4410 | Cn1c(=O)c2cc(S(=O)(=O)NC3(C)CC3)ccc2n(CC#N)c1=O [Example 175]
725 | Cc1nc(C(F)(F)F)c(Cn2c(=O)c3cc(S(=O)(=O)NC4(C)CC4)ccc3n(C)c2=O)s1 [Example 179]
4410 | Cn1c(=O)n(CC(=O)N2CCOCC2)c(=O)c2cc(S(=O)(=O)NC3(C)CC3)ccc21 [Example 182]
1840 | Cc1ncoc1Cn1c(=O)c2cc(S(=O)(=O)NC3(C)CC3)ccc2n(C)c1=O [Example 188]
1330 | Cc1nc(C)c(Cn2c(=O)c3cc(S(=O)(=O)NC4(C)CC4)ccc3n(C)c2=O)o1 [Example 189]
3180 | Cc1noc(Cn2c(=O)c3cc(S(=O)(=O)NC4(C)CC4)ccc3n(C)c2=O)n1 [Example 190]
877 | Cc1nnsc1Cn1c(=O)c2cc(S(=O)(=O)NC3(C)CC3)ccc2n(C)c1=O [Example 191]
3220 | Cc1cc(Cn2c(=O)c3cc(S(=O)(=O)NC4(C)CC4)ccc3n(C)c2=O)n[nH]1 [Example 195]
1390 | Cc1nc(C)c(Cn2c(=O)n(C)c(=O)c3cc(S(=O)(=O)NC(C)(C)C)ccc32)s1 [Example 202]
635 | Cn1c(=O)n(Cc2cnn(CC(N)=O)c2)c(=O)c2cc(S(=O)(=O)NC3(C)CC3)ccc21 [Example 203]
2600 | Cc1cc(Cn2c(=O)c3cc(S(=O)(=O)NC4(C)CC4)cnc3n(C)c2=O)on1 [Example 205]

Reference: patent publication US10239843B2 (CANCER RESEARCH TECHNOLOGY LIMITED, priority 2014, dated 2019)
